The target of assay [1] is T1, RORγ ligand-binding domain fused to Gal4 (Homo sapiens, UniProt P51449).
T1 construct: Gal4 (galactose-responsive transcription factor); expressed in transfected cells; host or cells: HEK293
T1 sequence (P51449 269-508 limits assumed): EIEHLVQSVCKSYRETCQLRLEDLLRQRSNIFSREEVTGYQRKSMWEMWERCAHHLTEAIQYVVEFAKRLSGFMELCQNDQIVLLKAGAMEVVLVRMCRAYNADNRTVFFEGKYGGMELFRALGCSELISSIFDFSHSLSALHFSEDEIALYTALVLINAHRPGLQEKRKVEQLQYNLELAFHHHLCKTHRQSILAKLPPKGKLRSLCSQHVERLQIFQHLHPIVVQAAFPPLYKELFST
Kind of assay: RORγ Reporter Assay (Gal4). It counts as cell-based. Put shortly:
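Percent inhibition was derived from luciferase RLU versus vehicle mean after 24 h compound incubation (37 °C, 0.1% DMSO). The cells were HEK293, transiently co-expressing a Gal4–RORγ ligand-binding-domain fusion plus a UAS-driven luciferase gene.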
For orientation: In a reporter assay the amount or activity of a reporter protein is the signal.

The subject of assay [2] is IL-17A secretion in activated PBMCs. The assay can be described thus: IL-17A secretion in activated PBMCs. Conditions: human PBMCs stimulated with CD3/CD28 Dynabeads for 48 h, absolute IC50. The assay is classed as cell-based, human. Put shortly: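 Human PBMCs from healthy donors, 40,000 cells/well, were preincubated 30 min with compound in 10-point 5-fold dilutions (0.1% DMSO), then stimulated 48 h at 37° C with CD3/CD28 beads (1:1). Supernatant IL-17A was read by bead immunoassay on a flow cytometer. Inhibition was normalized to activated DMSO (top) and GNE09461 10 μM (basal).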

Another assay concerns plasma IL-17A. The assay can be described thus: In vivo IL-17A induction in anti-CD3 model in mice. The following applies: oral gavage twice daily day 0 to day 3, C57BL/6JRj mice. How it is done:
Male C57BL/6JRj mice (7 week old) were purchased from Janvier Labs and housed at the animal facilities of Almirall throughout the study. Animals were allowed to condition for 5 days in their new environment at 22° C.±2° C., 55%±10% relative humidity and 12 h: 12 h light:dark cycles. Animals were housed in polycarbonate cages, with free access to water and non-purified stock diet (2014 Teklad Global 14% Protein Rodent Maintenance Diet, Envigo) during the full course of the studies. Care of animals was undertaken in compliance with the European Committee Directive 2010/63/EU, and the Catalan and Spanish law. All procedures were performed according to the ARRIVE guidelines (Animal Research: Reporting of In Vivo Experiments) and with approval from the Animal Experimentation Ethical Committee of Almirall (Barcelona, Spain).
Mice were injected intraperitoneally with 7.5 μg of anti-CD3e (Clone 145-2C11 from Pharmingen BD) at 0 h (day 0) and […] (day 3) time-points. The non-induced-group were injected with PBS instead of anti-CD3e. At study completion (4 h after anti-CD3e injection), animals were anaesthetized with isofluorane (Baxter) and 0.5-1 mL blood samples were drawn by intracardiac puncture in heparinized tubes. Plasma samples were stored at −80° C. for subsequent analysis.
Test compounds were freshly suspended in sterile 0.5% methylcellulose 0.1% tween-80 solution (10 mL/kg body weight). […]
Plasma levels of IL-17A were measured by ELISA (R&D Systems) according to the manufacturer's instruction. Results were calculated as the percentage of reduction of plasma IL-17A versus the difference between non-induced and anti-CD3e induced groups through the formula: inhibition=100*[1−[(x−mean non-induced)/(mean control vehicle−mean non-induced)]]. The IL-17A inhibition for each treatment can be expressed as the mean for each treatment group±S.E.M. Statistical analysis of data were conducted with one-way ANOVA followed by Dunnett's multiple comparisons test when appropriate. […]

For assay [3], the system named is Collagen-induced arthritis. Kind of assay: Collagen-induced arthritis (CIA) study. The assay is classed as in vivo. Conditions: 3 mpk p.o. b.i.d.; DBA/1J mice. How it is done: Collagen-induced arthritis is an animal model of rheumatoid arthritis used to evaluate the efficacy of test compounds. CIA was induced at Washington Biotechnology Inc. (Baltimore) in male DBA/1J mice (Jackson Laboratories) by subcutaneous injection at the base of the tail with 50 μl of a bovine collagen/complete Freund's adjuvant emulsion. After 21 days, the mice were further boosted by a further subcutaneous injection of 50 μl of a collagen/incomplete Freund's adjuvant emulsion. For treatment, compound or vehicle (2% DMSO, 10% HP-β-CD in MilliQ water) was given orally twice daily at various doses selected from 3, 10, 30 mg/kg, beginning at the day of CIA induction (Prophylactic setting), or after disease initiation (at day 27, therapeutic setting). Treatment lasted until day 41, and the animals were scored three times weekly. Each paw was scored and the sum of all four scores was recorded as the Arthritic Index (AI). The maximum possible AI was 16. 0=no visible effects of arthritis; 1=edema and/or erythema of one digit; 2=edema and/or erythema of 2 joints; 3=edema and/or erythema of more than 2 joints; 4=severe arthritis of the entire paw and digits including limb deformation and ankylosis of the joint. The Arthritis Index for each treatment can be expressed as the mean score for each treatment group+/−S.E.M.

The test system of the next assay is Th17 cells. The assay can be described thus: Th17 Assay (IL-17 levels in supernatants of differentiating Th17 cells). Conditions: 168 h; human naive CD4+ T cells differentiated to Th17 for seven days; IL-17 in supernatants by ELISA. It counts as cell-based. How it is done:
The following modifications were made to the manufacturer's protocol: 1) Incubation with Biotin-Antibody Cocktail and Anti-Biotin MicroBeads was prolonged to 30 minutes, and 2) Cells were washed with 40 mL of Miltenyi buffer. […] Test compounds were tested in triplicates, diluted 1000-fold in medium (final DMSO concentration is 0.1%). Incubated for seven days at 37° C., 5% CO2, 95% humidity, and 2-fluoro-4′-[[4-(4-pyridinylmethyl)-1-piperazinyl]methyl]-α,α-bis(trifluoromethyl)-[1,1′-biphenyl]-4-methanol (SR2211 Calbiochem, Cat. No. 557353) was used as positive control. As negative control, cells were differentiated into Th0 using 5 μg/ml anti-CD28 (BD Pharmingen), 10 ng/ml IL-2 (R&D Systems), 2 μg/ml anti-ILA (R&D Systems) and 2 μg/ml anti-IFNγ (R&D Systems) are negative control. IL-17 levels in supernatants were measured with ELISA (R&D Systems).
In general terms: An ELISA detects its analyte on a solid surface through an enzyme-linked reagent.

For assay [4], the target named is T1, RORγ ligand-binding domain fused to Gal4. Conditions: comparison examples of WO2016020288 (footnote 1); cited from earlier work.

Where two headings read alike, the source gives them in different places. Some results are limits rather than exact numbers.

As to `NC(=O)CN1CC[C@@H](CNc2ncnc(N(Cc3ccc(C(F)(F)F)cc3)C3CC3)c2F)[C@H](O)C1` (single isomer, unassigned) [Example A7-01-1], in assay [1] (compounds of the present disclosure, source: Table 2 herein, read-out: Gal4 assay EC50), the EC50 is less than 100 nM. The half-inhibitory concentration (IC50) in assay [2] (Homo sapiens, PBMC, 48 h) stood at 6.3 nM. Besides, the “Inhibition of IL-17A (%) at 3 mg/kg” value in the assay on plasma IL-17A was found to be 80%. The “reduction in AI (Arthritic Index) as compared to the anti-IL-17A antibody” value in assay [3] is recorded as 74%.

Compound `CCN(Cc1ccc(C(F)(F)F)cc1F)c1ncnc(NC[C@]2(O)CCN(CC(N)=O)C[C@H]2O)c1F` (single isomer, unassigned) [Example D5-03-1-1] returned an IC50 in assay [2] (Homo sapiens, PBMC, 48 h) of 3 nM. Besides, the “Inhibition of IL-17A (%) at 3 mg/kg” value in the assay on plasma IL-17A is 93%.

In turn, `CCN(Cc1ccc(C(F)(F)F)cc1)c1ncnc(NC[C@]2(O)CCN(CC(N)=O)C[C@H]2O)c1F` (single isomer, unassigned) [Example D5-01-1-1] registered an IC50 in assay [2] of 1.9 nM. For the same compound, in the assay on plasma IL-17A, the “Inhibition of IL-17A (%) at 3 mg/kg” value turned out to be 92%.

Take `NC(=O)CN1CCC(CNc2ncnc(N(Cc3ccc(C(F)(F)F)cn3)C3CC3)c2F)C(F)(F)C1` (single isomer, unassigned) [Example A7-03-1]: the EC50 in assay [1] (compounds of the present disclosure, value from Table 2 herein, read-out: Gal4 assay EC50) is less than 100 nM; in the assay with Th17 cells, 83 nM.

Regarding `NC(=O)Cc1ccc(CNc2ncnc(N(Cc3cnc(C(F)(F)F)nc3)C3CC3)c2F)cc1` [Example A98, reference compound], the EC50 in assay [1] (RORγ Gal4 assay EC50, Examples in <100 range, Examples of WO2016020288, based on % inhibition at 0.1 and/or 1 uM (Table 5 c, footnote 4)) is less than 100 nM; in assay [1] (RORγ Gal4 assay EC50, Examples in <500 range, Examples of WO2016020288, based on % inhibition at 0.1 and/or 1 uM (Table 5 c, footnote 5)), less than 500 nM; in assay [4], less than 100 nM.

The term EC50 denotes the concentration that produces a half-maximal response. As usually defined, the IC50 is the concentration that inhibits the measured activity by half. A high value points to weaker potency in that assay.

These data come from US12441704B2, “Compounds active towards nuclear receptors” (NUEVOLUTION A/S, priority 2019, dated 2025).
